Starred links: 1 amine or outer side, 2 acyl side, 3 side chain; linkers in the order of their positions; H or OH if unused. Non-standard residues stand in square brackets, D forms with d. Residues, ends and D or L forms follow the SMILES beside them. Groups on a side chain read outwards from the residue. *: point of attachment. C18 diacid = O=C(O)CCCCCCCCCCCCCCCCC(=O)*; γGlu = O=C(O)[C@H](CCC(=O)[*:2])N[*:1]; αMeF = C[C@](N)(Cc1ccccc1)C(=O)O; Aib = CC(C)(N)C(=O)O
Legend:
[1] = target: human GLP-1 receptor (hGLP-1R) (Homo sapiens, UniProt P43220); assay: cAMP production (HTRF) in CHO cells expressing hGLP-1R; assay type: cell-based; design: expressed in transfected cells; conditions: for EC50: Table 7, peptides modified at position 20, cAMP in CHO hGLP-1R cells, geometric mean, read-out: hGLP-1R EC50; for % Relative Potency Ratio: Table 7, % GLP-1R activity relative to GLP-1 / % GlucR activity relative to glucagon
How it was run: (§1)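 Potency values represent EC50 from 4-parameter logistic curves of HTRF % Delta F signal. Receptor-expressing CHO cells (hGCGR 2×10^5 cells/mL, hGLP-1R 1×10^5 cells/mL) were exposed for 30 min at room temperature before two-step cAMP detection.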

[2] = target: human glucagon receptor (hGCGR) (Homo sapiens, UniProt P47871); assay: cAMP production (HTRF) in CHO cells expressing hGCGR; assay type: cell-based; design: expressed in transfected cells; conditions: Table 7, peptides modified at position 20; cAMP in CHO hGCGR cells; geometric mean; read-out: hGluc-R EC50
How it was run: as §1

Sequence of human GLP-1 receptor (hGLP-1R) (P43220 24-463): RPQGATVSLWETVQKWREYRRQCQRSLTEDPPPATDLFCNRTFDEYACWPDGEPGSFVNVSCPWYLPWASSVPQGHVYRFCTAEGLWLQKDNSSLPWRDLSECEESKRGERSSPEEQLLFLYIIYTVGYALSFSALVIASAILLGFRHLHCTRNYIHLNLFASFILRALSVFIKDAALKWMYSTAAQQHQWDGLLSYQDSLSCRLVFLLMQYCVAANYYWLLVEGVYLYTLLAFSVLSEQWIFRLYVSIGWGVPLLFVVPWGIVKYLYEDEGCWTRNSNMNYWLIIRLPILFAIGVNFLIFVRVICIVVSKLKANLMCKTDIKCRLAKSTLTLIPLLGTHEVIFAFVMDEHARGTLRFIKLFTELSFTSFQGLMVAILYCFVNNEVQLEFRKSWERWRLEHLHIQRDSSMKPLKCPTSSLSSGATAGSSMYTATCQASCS
Sequence of human glucagon receptor (hGCGR) (P47871 26-477): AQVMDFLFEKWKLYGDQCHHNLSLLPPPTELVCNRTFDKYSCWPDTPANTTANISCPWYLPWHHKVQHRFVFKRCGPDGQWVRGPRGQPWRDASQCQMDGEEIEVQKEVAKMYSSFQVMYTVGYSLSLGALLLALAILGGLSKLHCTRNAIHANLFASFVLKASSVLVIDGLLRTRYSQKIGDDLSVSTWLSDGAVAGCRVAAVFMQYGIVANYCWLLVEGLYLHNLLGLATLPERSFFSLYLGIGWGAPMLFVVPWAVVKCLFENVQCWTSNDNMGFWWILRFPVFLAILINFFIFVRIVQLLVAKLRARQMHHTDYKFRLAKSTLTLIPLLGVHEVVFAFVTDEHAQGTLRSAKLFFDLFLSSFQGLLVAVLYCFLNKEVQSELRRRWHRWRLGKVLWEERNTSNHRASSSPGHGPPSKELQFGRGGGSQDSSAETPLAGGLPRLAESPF

| EC50 [1] [nM] | % Relative Potency Ratio [1] | EC50 [2] [nM] | Structure (SMILES) |
| --- | --- | --- | --- |
| 0.632 | 1.0 | 0.305 | CC[C@H](C)[C@H](NC(=O)[C@H](CC(C)C)NC(=O)[C@H](Cc1c[nH]c2ccccc12)NC(=O)[C@H](CCC(N)=O)NC(=O)[C@@H](NC(=O)[C@H](Cc1ccccc1)NC(=O)[C@H](CC(=O)O)NC(=O)[C@H](CCCCNC(=O)CC[C@H](NC(=O)CCCCCCCCCCCCCCCCC(=O)O)C(=O)O)NC(=O)[C@H](C)NC(=O)[C@H](CCCNC(=N)N)NC(=O)[C@H](CCCNC(=N)N)NC(=O)[C@H](CO)NC(=O)[C@H](CC(=O)O)NC(=O)[C@H](CC(C)C)NC(=O)[C@](C)(Cc1ccccc1)NC(=O)[C@H](CCCCN)NC(=O)[C@H](CO)NC(=O)[C@H](Cc1ccc(O)cc1)NC(=O)[C@H](CC(=O)O)NC(=O)[C@H](CO)NC(=O)[C@@H](NC(=O)[C@H](Cc1ccccc1)NC(=O)[C@@H](NC(=O)CNC(=O)[C@H](CCC(N)=O)NC(=O)C(C)(C)NC(=O)[C@@H](N)Cc1c[nH]cn1)[C@@H](C)O)[C@@H](C)O)C(C)C)C(=O)N[C@@H](CO)C(=O)N[C@@H](CCC(=O)O)C(=O)O [Peptide 336] (H-H[Aib]QGTFTSDYSK[αMeF]LDSRRAK([γGlu-C18 diacid])DFVQWLISE-OH; N-terminus assumed) |
| 0.4 | 0.4 | 0.0896 | CC(C)C[C@H](NC(=O)[C@H](Cc1c[nH]c2ccccc12)NC(=O)[C@H](CCC(N)=O)NC(=O)[C@@H](NC(=O)[C@H](Cc1ccccc1)NC(=O)[C@H](CC(=O)O)NC(=O)[C@H](CCCCNC(=O)CC[C@H](NC(=O)CCCCCCCCCCCCCCCCC(=O)O)C(=O)O)NC(=O)[C@H](C)NC(=O)[C@H](CCCNC(=N)N)NC(=O)[C@H](CCCNC(=N)N)NC(=O)[C@H](CO)NC(=O)[C@H](CC(=O)O)NC(=O)[C@H](CC(C)C)NC(=O)[C@](C)(Cc1ccccc1)NC(=O)[C@H](CCCCN)NC(=O)[C@H](CO)NC(=O)[C@H](Cc1ccc(O)cc1)NC(=O)[C@H](CC(=O)O)NC(=O)[C@H](CO)NC(=O)[C@@H](NC(=O)[C@H](Cc1ccccc1)NC(=O)[C@@H](NC(=O)CNC(=O)[C@H](CCC(N)=O)NC(=O)C(C)(C)NC(=O)[C@@H](N)Cc1c[nH]cn1)[C@@H](C)O)[C@@H](C)O)C(C)C)C(=O)N[C@@H](CC(C)C)C(=O)NC(C)(C)C(=O)N[C@H](C(=O)O)[C@@H](C)O [Peptide 337] |
| 0.308 | 0.2 | 0.0257 | CC(C)C[C@H](NC(=O)[C@H](Cc1c[nH]c2ccccc12)NC(=O)[C@H](CCC(N)=O)NC(=O)[C@@H](NC(=O)[C@H](Cc1ccccc1)NC(=O)[C@H](CC(=O)O)NC(=O)[C@H](CCCCNC(=O)CC[C@H](NC(=O)CCCCCCCCCCCCCCCCC(=O)O)C(=O)O)NC(=O)[C@H](C)NC(=O)[C@H](CCCNC(=N)N)NC(=O)[C@H](CCCNC(=N)N)NC(=O)C(C)(C)NC(=O)[C@H](CC(=O)O)NC(=O)[C@H](CC(C)C)NC(=O)[C@](C)(Cc1ccccc1)NC(=O)[C@H](CCCCN)NC(=O)[C@H](CO)NC(=O)[C@H](Cc1ccc(O)cc1)NC(=O)[C@H](CC(=O)O)NC(=O)[C@H](CO)NC(=O)[C@@H](NC(=O)[C@H](Cc1ccccc1)NC(=O)[C@@H](NC(=O)CNC(=O)[C@H](CCC(N)=O)NC(=O)C(C)(C)NC(=O)[C@@H](N)Cc1c[nH]cn1)[C@@H](C)O)[C@@H](C)O)C(C)C)C(=O)N[C@@H](CC(C)C)C(=O)NC(C)(C)C(=O)N[C@H](C(=O)O)[C@@H](C)O [Peptide 338] |
